Measured values reported in ChEMBL document CHEMBL5365474, “Discovery of a First-in-Class CD38 Inhibitor for the Treatment of Mitochondrial Myopathy” (J Med Chem, 2023).
≈ marks a conversion by molar mass, not a printed value.

Assay: physchem
Conditions: PBS, pH 7.4

O=C(Nc1cccnc1)c1cc(C(F)(F)F)nc(-n2ccnc2)n1
solubility at 2 h: 48 µM (≈ 16 µg/mL)
